In patent US11912701B2, “Protein kinase inhibitors for promoting liver regeneration or reducing or preventing hepatocyte death” (HEPAREGENIX GMBH, priority 2018, dated 2024):

What was measured:
Type in all cases: biochemical
MKK7 = biological target: T1, MKK7 (Homo sapiens, UniProt O14733); assay: 33PanQinase enzyme assay, MKK7; design: purchased ProQinase GmbH, Freiburg, Germany (33PanQinase Assay Service); details: ratio IC50(MKK7)/IC50(MKK4)
T1 sequence (O14733 1-419): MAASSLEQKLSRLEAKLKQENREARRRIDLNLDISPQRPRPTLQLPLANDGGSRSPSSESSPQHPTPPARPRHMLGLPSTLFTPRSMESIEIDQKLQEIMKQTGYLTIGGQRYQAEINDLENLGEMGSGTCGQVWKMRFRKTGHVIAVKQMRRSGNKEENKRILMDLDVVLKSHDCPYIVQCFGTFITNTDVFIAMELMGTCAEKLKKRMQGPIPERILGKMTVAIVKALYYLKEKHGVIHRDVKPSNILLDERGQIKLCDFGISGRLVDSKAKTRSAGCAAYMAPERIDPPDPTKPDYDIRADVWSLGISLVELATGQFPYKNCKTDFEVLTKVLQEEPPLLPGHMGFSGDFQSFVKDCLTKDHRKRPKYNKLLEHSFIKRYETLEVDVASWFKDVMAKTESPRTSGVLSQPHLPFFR
Outline: (§1)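 Off-target selectivity is the ratio IC50(off-target)/IC50(MKK4), with IC50 values from least-squares fitting and single-point data as % residual activity. Reactions of enzyme/substrate mix, ATP and compound ran 60 min at 30° C before H3PO4 stop; ^33P incorporation read on a scintillation counter.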

BRaf = biological target: T2, BRaf (Homo sapiens, UniProt P15056); assay: 33PanQinase enzyme assay, BRaf; details: ratio IC50(BRaf)/IC50(MKK4)
T2 construct: purchased ProQinase GmbH, Freiburg, Germany (33PanQinase Assay Service)
T2 sequence (P15056 whole entry, species assumed): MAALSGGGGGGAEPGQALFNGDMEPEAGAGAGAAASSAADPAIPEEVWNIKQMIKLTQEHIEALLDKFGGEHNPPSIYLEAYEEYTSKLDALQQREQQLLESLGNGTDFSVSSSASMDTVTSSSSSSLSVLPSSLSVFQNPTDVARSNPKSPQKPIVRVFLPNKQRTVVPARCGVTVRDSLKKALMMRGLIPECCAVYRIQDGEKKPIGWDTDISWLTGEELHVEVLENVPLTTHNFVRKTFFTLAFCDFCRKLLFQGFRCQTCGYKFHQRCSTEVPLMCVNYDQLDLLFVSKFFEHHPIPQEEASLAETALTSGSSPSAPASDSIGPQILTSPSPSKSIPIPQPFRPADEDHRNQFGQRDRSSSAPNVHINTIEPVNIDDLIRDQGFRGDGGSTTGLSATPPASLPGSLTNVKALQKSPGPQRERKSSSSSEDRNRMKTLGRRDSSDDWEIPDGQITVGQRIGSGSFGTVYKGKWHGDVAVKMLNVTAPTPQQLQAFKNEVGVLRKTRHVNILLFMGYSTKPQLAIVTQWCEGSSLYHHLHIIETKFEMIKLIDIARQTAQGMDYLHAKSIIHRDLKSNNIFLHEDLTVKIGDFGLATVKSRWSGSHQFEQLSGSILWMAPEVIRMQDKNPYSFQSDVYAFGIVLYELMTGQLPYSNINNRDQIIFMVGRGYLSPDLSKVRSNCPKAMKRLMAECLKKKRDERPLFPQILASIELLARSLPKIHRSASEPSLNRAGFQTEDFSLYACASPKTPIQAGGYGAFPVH
Outline: as §1

JNK1 = JNK1 (Homo sapiens, UniProt P45983); assay: 33PanQinase enzyme assay, JNK1; design: purchased ProQinase GmbH, Freiburg, Germany (33PanQinase Assay Service); details: ratio IC50(JNK1)/IC50(MKK4)
Sequence of JNK1 (P45983 whole entry): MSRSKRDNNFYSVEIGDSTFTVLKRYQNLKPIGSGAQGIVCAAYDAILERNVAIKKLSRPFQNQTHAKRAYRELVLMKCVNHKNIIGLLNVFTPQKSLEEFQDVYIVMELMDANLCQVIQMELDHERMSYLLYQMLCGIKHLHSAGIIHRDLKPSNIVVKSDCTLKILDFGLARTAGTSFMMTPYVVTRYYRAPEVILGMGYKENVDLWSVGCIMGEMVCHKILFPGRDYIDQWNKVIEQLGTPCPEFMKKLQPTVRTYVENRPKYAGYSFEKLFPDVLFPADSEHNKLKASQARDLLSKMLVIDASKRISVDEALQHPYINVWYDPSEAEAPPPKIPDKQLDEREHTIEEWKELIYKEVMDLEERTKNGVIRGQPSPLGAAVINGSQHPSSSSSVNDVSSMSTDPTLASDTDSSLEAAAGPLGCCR
Outline: as §1

MKK4 = biological target: T3, MKK4 (Homo sapiens, UniProt P45985); assay: 33PanQinase enzyme assay, MKK4; details: assay 'IC50'; read-out: Potency MKK4 (IC50)
T3 construct: purchased ProQinase GmbH, Freiburg, Germany (33PanQinase Assay Service)
T3 sequence (P45985 1-399): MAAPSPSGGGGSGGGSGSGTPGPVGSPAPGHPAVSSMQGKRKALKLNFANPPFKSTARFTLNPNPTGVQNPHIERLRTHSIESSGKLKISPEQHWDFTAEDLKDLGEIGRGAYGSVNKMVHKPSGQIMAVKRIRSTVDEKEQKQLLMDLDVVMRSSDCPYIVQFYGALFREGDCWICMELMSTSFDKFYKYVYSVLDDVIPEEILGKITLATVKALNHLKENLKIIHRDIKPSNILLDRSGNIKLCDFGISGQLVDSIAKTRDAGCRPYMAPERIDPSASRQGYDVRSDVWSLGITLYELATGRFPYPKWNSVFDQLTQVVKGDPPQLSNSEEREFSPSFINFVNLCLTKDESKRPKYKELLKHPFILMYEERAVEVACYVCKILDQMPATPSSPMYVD
Outline: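 Inhibition measured as 33Pi transfer to substrate after a 60-min, 30 °C reaction, acid-stopped and scintillation-counted.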

Row | Structure (SMILES) | Selectivity IVIKK7, IC50(off-target)/IC50(MKK4) (MKK7) | Selectivity Braf, IC50(off-target)/IC50(MKK4) (BRaf) | Selectivity JNK1, IC50(off-target)/IC50(MKK4) (JNK1) | IC50 (MKK4)
1 | CCCS(=O)(=O)Nc1c(F)ccc(C(=O)c2c[nH]c3ncc(-c4ccncc4Cl)cc23)c1F [Example 173, N-(3-(5-(3-chloropyridin-4-yl)-1H-pyrrolo[2,3-b]pyridine-3-carbonyl)-2,6-difluorophenyl)propane-1-sulfonamide] | +++ (IC50(off-target)/IC50(MKK4) > 100) | +++ (IC50(off-target)/IC50(MKK4) > 100) | ++ (100 ≥ IC50(off-target)/IC50(MKK4) > 10) | < 100 nM
2 | CCCS(=O)(=O)Nc1c(F)ccc(C(=O)c2c[nH]c3ncc(-c4cnc(N5CCNCC5)nc4)cc23)c1F [Example 185, N-(2,6-difluoro-3-(5-(2-(piperazin-1-yl)pyrimidin-5-yl)-1H-pyrrolo[2,3-b]pyridine-3-carbonyl)phenyl)propane-1-sulfonamide] | +++ (IC50(off-target)/IC50(MKK4) > 100) | + (10 ≥ IC50(off-target)/IC50(MKK4) > 3) | ++ (100 ≥ IC50(off-target)/IC50(MKK4) > 10) | 100 to 1000 nM
3 | CCCS(=O)(=O)Nc1c(F)ccc(C(=O)c2c[nH]c3ncc(-c4cnc(NCCOC)nc4)cc23)c1F [Example 187, N-(2,6-difluoro-3-(5-(2-((2-methoxyethyl)amino)pyrimidin-5-yl)-1H-pyrrolo[2,3-b]pyridine-3-carbonyl)phenyl)propane-1-sulfonamide] | +++ (IC50(off-target)/IC50(MKK4) > 100) | +++ (IC50(off-target)/IC50(MKK4) > 100) | +++ (IC50(off-target)/IC50(MKK4) > 100) | 100 to 1000 nM
4 | CCCS(=O)(=O)Nc1c(F)ccc(C(=O)c2c[nH]c3ncc(-c4cnc(C#N)nc4)cc23)c1F [Example 189, N-(3-(5-(2-cyanopyrimidin-5-yl)-1H-pyrrolo[2,3-b]pyridine-3-carbonyl)-2,6-difluorophenyl)propane-1-sulfonamide] | +++ (IC50(off-target)/IC50(MKK4) > 100) | ++ (100 ≥ IC50(off-target)/IC50(MKK4) > 10) | ++ (100 ≥ IC50(off-target)/IC50(MKK4) > 10) | 100 to 1000 nM
5 | CCCS(=O)(=O)Nc1c(F)ccc(C(=O)c2c[nH]c3ncc(-c4cnc(N5CCCC5)nc4)cc23)c1F [Example 191, N-(2,6-difluoro-3-(5-(2-(pyrrolidin-1-yl)pyrimidin-5-yl)-1H-pyrrolo[2,3-b]pyridine-3-carbonyl)phenyl)propane-1-sulfonamide] | +++ (IC50(off-target)/IC50(MKK4) > 100) | +++ (IC50(off-target)/IC50(MKK4) > 100) | +++ (IC50(off-target)/IC50(MKK4) > 100) | 100 to 1000 nM
6 | CCCS(=O)(=O)Nc1c(F)ccc(C(=O)c2c[nH]c3ncc(-c4cnc(NCCCOC)nc4)cc23)c1F [Example 192, N-(2,6-difluoro-3-(5-(2-((3-methoxypropyl)amino)pyrimidin-5-yl)-1H-pyrrolo[2,3-b]pyridine-3-carbonyl)phenyl)propane-1-sulfonamide] | +++ (IC50(off-target)/IC50(MKK4) > 100) | +++ (IC50(off-target)/IC50(MKK4) > 100) | ++ (100 ≥ IC50(off-target)/IC50(MKK4) > 10) | 100 to 1000 nM
7 | CCCS(=O)(=O)Nc1c(F)ccc(C(=O)c2c[nH]c3ncc(-c4cnc(C(C)C)nc4)cc23)c1F [Example 193, N-(2,6-difluoro-3-(5-(2-isopropylpyrimidin-5-yl)-1H-pyrrolo[2,3-b]pyridine-3-carbonyl)phenyl)propane-1-sulfonamide] | +++ (IC50(off-target)/IC50(MKK4) > 100) | ++ (100 ≥ IC50(off-target)/IC50(MKK4) > 10) | +++ (IC50(off-target)/IC50(MKK4) > 100) | < 100 nM
8 | CCCS(=O)(=O)Nc1c(F)ccc(C(=O)c2c[nH]c3ncc(-c4cnc(N5CCN(C)CC5)nc4)cc23)c1F [Example 194, N-(2,6-difluoro-3-(5-(2-(4-methylpiperazin-1-yl)pyrimidin-5-yl)-1H-pyrrolo[2,3-b]pyridine-3-carbonyl)phenyl)propane-1-sulfonamide] | +++ (IC50(off-target)/IC50(MKK4) > 100) | ++ (100 ≥ IC50(off-target)/IC50(MKK4) > 10) | ++ (100 ≥ IC50(off-target)/IC50(MKK4) > 10) | 100 to 1000 nM
9 | CCCS(=O)(=O)Nc1c(F)ccc(C(=O)c2c[nH]c3ncc(-c4cnc(SC)nc4)cc23)c1F [Example 195, N-(2,6-difluoro-3-(5-(2-(methylthio)pyrimidin-5-yl)-1H-pyrrolo[2,3-b]pyridine-3-carbonyl)phenyl)propane-1-sulfonamide] | +++ (IC50(off-target)/IC50(MKK4) > 100) | +++ (IC50(off-target)/IC50(MKK4) > 100) | +++ (IC50(off-target)/IC50(MKK4) > 100) | < 100 nM

Continued, values first:

Row | Selectivity IVIKK7, IC50(off-target)/IC50(MKK4) (MKK7) | Selectivity Braf, IC50(off-target)/IC50(MKK4) (BRaf) | Selectivity JNK1, IC50(off-target)/IC50(MKK4) (JNK1) | IC50 (MKK4) | Structure (SMILES)
10 | +++ (IC50(off-target)/IC50(MKK4) > 100) | +++ (IC50(off-target)/IC50(MKK4) > 100) | +++ (IC50(off-target)/IC50(MKK4) > 100) | < 100 nM | CCCS(=O)(=O)Nc1c(F)ccc(C(=O)c2c[nH]c3ncc(-c4cnc(C)cc4C)cc23)c1F [Example 171, N-(3-(5-(4,6-dimethylpyridin-3-yl)-1H-pyrrolo[2,3-b]pyridine-3-carbonyl)-2,6-difluorophenyl)propane-1-sulfonamide]
11 | +++ (IC50(off-target)/IC50(MKK4) > 100) | +++ (IC50(off-target)/IC50(MKK4) > 100) | +++ (IC50(off-target)/IC50(MKK4) > 100) | < 100 nM | Cc1cnccc1-c1cnc2[nH]cc(C(=O)c3ccc(F)c(NS(=O)(=O)CCC(F)(F)F)c3F)c2c1 [Example 172, N-(2,6-difluoro-3-(5-(3-methylpyridin-4-yl)-1H-pyrrolo[2,3-b]pyridine-3-carbonyl)phenyl)-3,3,3-trifluoropropane-1-sulfonamide]
12 | +++ (IC50(off-target)/IC50(MKK4) > 100) | +++ (IC50(off-target)/IC50(MKK4) > 100) | +++ (IC50(off-target)/IC50(MKK4) > 100) | < 100 nM | CCCS(=O)(=O)Nc1c(F)ccc(C(=O)c2c[nH]c3ncc(-c4cnc(C)nc4Cl)cc23)c1F [Example 186, N-(3-(5-(4-chloro-2-methylpyrimidin-5-yl)-1H-pyrrolo[2,3-b]pyridine-3-carbonyl)-2,6-difluorophenyl)propane-1-sulfonamide]
13 | +++ (IC50(off-target)/IC50(MKK4) > 100) | +++ (IC50(off-target)/IC50(MKK4) > 100) | +++ (IC50(off-target)/IC50(MKK4) > 100) | < 100 nM | CCCS(=O)(=O)Nc1c(F)ccc(C(=O)c2c[nH]c3ncc(-c4cnc(N5CCOCC5)nc4)cc23)c1F [Example 188, N-(2,6-difluoro-3-(5-(2-morpholinopyrimidin-5-yl)-1H-pyrrolo[2,3-b]pyridine-3-carbonyl)phenyl)propane-1-sulfonamide]
14 | +++ (IC50(off-target)/IC50(MKK4) > 100) | +++ (IC50(off-target)/IC50(MKK4) > 100) | +++ (IC50(off-target)/IC50(MKK4) > 100) | < 100 nM | CCCS(=O)(=O)Nc1c(F)ccc(C(=O)c2c[nH]c3ncc(-c4cnc(C(N)=O)nc4)cc23)c1F [Example 190, 5-(3-(2,4-difluoro-3-(propylsulfonamido)benzoyl)-1H-pyrrolo[2,3-b]pyridin-5-yl)pyrimidine-2-carboxamide]
